Source: patent US8815882B2, “Pyrazole aminopyrimidine derivatives as LRRK2 modulators” (Genentech, Inc., priority 2010, dated 2014)

target: T1, LRRK2 (Homo sapiens, UniProt Q5S007, G2019S); test: In Vitro LRRK2 Assay (LabChip 3000, fluorescently-labeled peptide substrate, ATP); type: biochemical; conditions: Table 9; LRRK2 Ki (micromolar); read-out: LRRK2 Ki (KI)
T1 construct: purchased Invitrogen PV4882 (lot 567054A)
Method in brief: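 LRRK2, fluorescent peptide substrate (diluted to 4 μM before mixing), ATP and compound were incubated 2 h in the dark, then stopped. Phosphorylated and unphosphorylated peptide were separated by capillary electrophoresis and quantified by fluorescence. Ki was fitted with a tight-binding equation including enzyme concentration, S and Km; IC50 or percent inhibition were also reported.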

T1 sequence (Q5S007 whole entry G2019S): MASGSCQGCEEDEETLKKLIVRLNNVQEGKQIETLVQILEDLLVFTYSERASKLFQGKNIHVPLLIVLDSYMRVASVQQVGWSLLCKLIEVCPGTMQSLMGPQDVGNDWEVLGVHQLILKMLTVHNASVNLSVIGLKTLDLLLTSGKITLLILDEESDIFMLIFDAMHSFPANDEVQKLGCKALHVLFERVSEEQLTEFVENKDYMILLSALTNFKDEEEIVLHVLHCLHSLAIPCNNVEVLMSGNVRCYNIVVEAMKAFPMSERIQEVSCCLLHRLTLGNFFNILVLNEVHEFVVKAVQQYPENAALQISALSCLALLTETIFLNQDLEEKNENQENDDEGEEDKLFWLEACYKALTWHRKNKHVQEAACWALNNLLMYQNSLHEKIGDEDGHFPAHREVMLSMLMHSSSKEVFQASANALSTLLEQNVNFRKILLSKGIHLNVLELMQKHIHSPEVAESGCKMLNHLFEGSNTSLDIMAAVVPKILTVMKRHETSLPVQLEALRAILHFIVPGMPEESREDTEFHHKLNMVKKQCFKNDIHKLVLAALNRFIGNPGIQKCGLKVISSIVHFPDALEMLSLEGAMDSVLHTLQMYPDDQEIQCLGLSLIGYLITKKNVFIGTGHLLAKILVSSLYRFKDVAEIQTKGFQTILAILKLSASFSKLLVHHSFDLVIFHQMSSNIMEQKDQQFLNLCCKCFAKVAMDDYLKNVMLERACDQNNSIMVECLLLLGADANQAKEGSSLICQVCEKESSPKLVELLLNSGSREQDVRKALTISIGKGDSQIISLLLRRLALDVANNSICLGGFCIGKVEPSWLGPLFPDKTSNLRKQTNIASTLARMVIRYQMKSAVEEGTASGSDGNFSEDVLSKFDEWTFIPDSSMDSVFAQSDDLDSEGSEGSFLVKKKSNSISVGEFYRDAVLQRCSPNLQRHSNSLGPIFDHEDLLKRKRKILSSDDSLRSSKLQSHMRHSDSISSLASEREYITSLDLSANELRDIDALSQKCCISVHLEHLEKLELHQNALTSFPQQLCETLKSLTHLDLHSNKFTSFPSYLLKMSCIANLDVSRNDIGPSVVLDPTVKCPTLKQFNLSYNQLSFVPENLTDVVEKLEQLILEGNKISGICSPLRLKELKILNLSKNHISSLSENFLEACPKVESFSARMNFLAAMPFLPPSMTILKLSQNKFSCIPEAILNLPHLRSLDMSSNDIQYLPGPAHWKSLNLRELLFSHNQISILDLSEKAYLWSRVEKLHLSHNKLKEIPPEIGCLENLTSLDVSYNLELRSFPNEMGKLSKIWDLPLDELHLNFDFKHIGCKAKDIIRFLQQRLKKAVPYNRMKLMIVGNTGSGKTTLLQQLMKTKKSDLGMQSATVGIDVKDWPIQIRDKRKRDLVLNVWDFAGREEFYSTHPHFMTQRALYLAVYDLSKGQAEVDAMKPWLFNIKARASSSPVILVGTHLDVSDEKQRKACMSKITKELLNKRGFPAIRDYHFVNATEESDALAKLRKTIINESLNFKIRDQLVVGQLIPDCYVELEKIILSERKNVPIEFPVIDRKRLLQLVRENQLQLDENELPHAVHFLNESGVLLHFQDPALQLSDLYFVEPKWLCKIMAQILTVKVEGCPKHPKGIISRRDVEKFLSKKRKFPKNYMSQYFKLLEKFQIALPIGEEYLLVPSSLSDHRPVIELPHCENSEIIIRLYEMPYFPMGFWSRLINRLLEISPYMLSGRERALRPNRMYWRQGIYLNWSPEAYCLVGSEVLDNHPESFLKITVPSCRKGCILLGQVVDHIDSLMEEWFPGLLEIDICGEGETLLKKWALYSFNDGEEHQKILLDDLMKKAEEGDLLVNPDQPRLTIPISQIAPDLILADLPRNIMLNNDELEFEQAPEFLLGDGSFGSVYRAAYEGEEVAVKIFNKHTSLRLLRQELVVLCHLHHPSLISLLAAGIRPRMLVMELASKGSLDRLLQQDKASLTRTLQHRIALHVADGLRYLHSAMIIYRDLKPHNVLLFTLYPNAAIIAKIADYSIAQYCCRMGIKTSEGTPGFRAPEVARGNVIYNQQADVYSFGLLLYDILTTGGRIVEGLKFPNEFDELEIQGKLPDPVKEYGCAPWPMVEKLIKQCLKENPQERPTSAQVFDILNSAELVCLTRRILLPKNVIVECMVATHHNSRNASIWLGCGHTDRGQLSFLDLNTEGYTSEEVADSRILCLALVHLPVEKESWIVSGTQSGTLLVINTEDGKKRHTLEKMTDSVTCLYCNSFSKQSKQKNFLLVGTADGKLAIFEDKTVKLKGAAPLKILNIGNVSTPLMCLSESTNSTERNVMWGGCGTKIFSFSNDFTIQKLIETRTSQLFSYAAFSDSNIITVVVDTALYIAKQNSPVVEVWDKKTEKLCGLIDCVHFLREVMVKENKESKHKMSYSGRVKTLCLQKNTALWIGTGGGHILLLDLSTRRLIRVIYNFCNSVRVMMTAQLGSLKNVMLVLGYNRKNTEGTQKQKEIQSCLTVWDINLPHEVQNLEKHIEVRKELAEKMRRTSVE

Ki [nM] | Compound
5.4 | CCCn1ncc(Nc2ncc(C#N)c(NC)n2)c1C [Example 366, 2-(5-methyl-1-propyl-1H-pyrazol-4-ylamino)-4-(methylamino) pyrimidine-5-carbonitrile]
8.7 | CNc1nc(Nc2cnn(C3CCOCC3)c2C)ncc1C#N [Example 361, 2-(5-methyl-1-(tetrahydro-2H-pyran-4-yl)-1H-pyrazol-4-ylamino)-4-(methylamino) pyrimidine-5-carbonitrile]

same assay, conditions: Table 10; LRRK2 Ki (micromolar); read-out: LRRK2 Ki (KI)

Compound | Ki [nM]
CNc1nc(Nc2cnn([C@H](C)C(=O)N3CCCC3)c2C)ncc1C(F)(F)F [Example 411, (R)-2-(5-methyl-4-(4-(methylamino)-5-(trifluoromethyl)pyrimidin-2-ylamino)-1H-pyrazol-1-yl)-1-(pyrrolidin-1-yl)propan-1-one] | 39
CNC(=O)Cn1ncc(Nc2ncc(C(F)(F)F)c(NC)n2)c1C [Example 398, N-methyl-2-(5-methyl-4-(4-(methylamino)-5-(trifluoromethyl)pyrimidin-2-ylamino)-1H-pyrazol-1-yl)acetamide] | 3

The next lines start with the values.

Ki [nM] | Compound
6.5 | CNc1nc(Nc2cn([C@H](C)C#N)nc2C)ncc1C(F)(F)F [Example 437]
9 | CNc1nc(Nc2cnn(C(C)(C)C(=O)NCC3CC3)c2C)ncc1C(F)(F)F [Example 426, N-(cyclopropylmethyl)-2-methyl-2-(5-methyl-4-(4-(methylamino)-5-(trifluoromethyl)pyrimidin-2-ylamino)-1H-pyrazol-1-yl)propanamide]

same assay, conditions: read-out: LRRK2 Ki (KI), Table 7

Ki [nM] | Compound
8.8 | CNc1nc(Nc2cn(C3COC3)nc2C)ncc1Cl [Example 27, 5-Chloro-N^4-methyl-N^2-(3-methyl-1-(oxetan-3-yl)-1H-pyrazol-4-yl)pyrimidine-2,4-diamine]
22 | COc1nc(Nc2cn(C(C)C)nc2C)ncc1Cl [Example 29, 5-Chloro-N-(1-isopropyl-3-methyl-1H-pyrazol-4-yl)-4-methoxy-pyrimidin-2-amine]

same assay, conditions: read-out: LRRK2 Ki (KI), Table 8

Compound | Ki [nM]
CNc1nc(Nc2cn(C3CCCC3OC)nc2C)ncc1C(F)(F)F (stereo not shown) [Example 188, N2-(1-(2-methoxycyclo-pentyl)-3-methyl-1H-pyrazol-4-yl)-N4-methyl-5-(trifluoromethyl) pyrimidine-2,4-diamine] | 12
CNc1nc(Nc2cnn(C(C)c3ccccn3)c2C)ncc1C(F)(F)F (stereo not shown) [Example 225, N4-methyl-N2-(5-methyl-1-(1-(pyridin-2-yl)ethyl)-1H-pyrazol-4-yl)-5-(trifluoromethyl) pyrimidine-2,4-diamine] | 3.8
Cc1c(Nc2ncc(C(F)(F)F)c(NCC3CCOCC3)n2)cnn1C [Example 232, N2-(1,5-dimethyl-1H-pyrazol-4-yl)-N4-((tetrahydro-2H-pyran-4-yl)methyl)-5-(trifluoromethyl) pyrimidine-2,4-diamine] | 9.6
CNc1nc(Nc2cnn(C3CCN(C(=O)C(C)C)CC3)c2C)ncc1C(F)(F)F [Example 175, 2-methyl-1-(4-(5-methyl-4-(4-(methylamino)-5-(trifluoromethyl)pyrimidin-2-ylamino)-1H-pyrazol-1-yl)piperidin-1-yl)propan-1-one] | 6.8
CCNc1nc(Nc2cn(-c3ccc(S(=O)(=O)C4CC4)cc3)nc2C)ncc1C(F)(F)F [Example 264, N2-[1-(4-Cyclopropane-sulfonyl-phenyl)-3-methyl-1H-pyrazol-4-yl]-N4-ethyl-5-trifluoromethyl-pyrimidine-2,4-diamine] | 3.2
CNc1nc(Nc2cn(C3CCS(=O)(=O)CC3)nc2C)ncc1C(F)(F)F [Example 273, N2-[1-(1,1-Dioxo-hexahydro-1$1%6&- thiopyran-4-yl)-3-methyl-1H-pyrazol-4-yl]-N4-mcthyl-5-trifluoromethyl-pyrimidine-2,4-diamine] | 37
CNc1nc(Nc2cn(CC3(C)COC3)nc2C)ncc1C(F)(F)F [Example 118, N4-methyl-N2-(3-methyl-1-((3-methyloxetan-3-yl)methyl)-1H-pyrazol-4-yl)-5-(trifluoromethyl) pyrimidine-2,4-diamine] | 7.2

Other lines, results leading:

Ki [nM] | Compound
0.4 | CCNc1nc(Nc2cnn(CCOC)c2C)ncc1C(F)(F)F [Example 295, N4-Ethyl-N2-[1-(2-methoxy-ethyl)-5-methyl-1H-pyrazol-4-yl]-5-trifluoromethyl-pyrimidine-2,4-diamine]
4.8 | CCNc1nc(Nc2cn(-c3ccc(C#N)cc3)nc2C)ncc1C(F)(F)F [Example 265, 4-[4-(4-Ethylamino-5-trifluoromethyl-pyrimidin-2-ylamino)-3-methyl-pyrazol-1-yl]-benzonitrile]
5.5 | CNc1nc(Nc2cn(C(F)F)nc2C)ncc1C(F)(F)F [Example 105, N2-(1-(difluoromethyl)-3-methyl-1H-pyrazol-4-yl)-N4-methyl-5-(trifluoromethyl) pyrimidine-2,4-diamine]
77.9 | CNc1nc(Nc2cnn(C)c2N(C)C)ncc1C(F)(F)F [Example 247, N2-(5-(dimethylamino)-1-methyl-1H-pyrazol-4-yl)-N4-methyl-5-(trifluoromethyl) pyrimidine-2,4-diamine]
2.2 | CCNc1nc(Nc2cn(C3CCN(C(C)=O)CC3)nc2C)ncc1C(F)(F)F [Example 134, 1-(4-(4-(4-(ethylamino)-5-(trifluoromethyl)pyrimidin-2-ylamino)-3-methyl-1H-pyrazol-1-yl)piperidin-1-yl)ethanone]
64 | CNc1nc(Nc2cn(C3CN(C(C)C)C3)nc2C)ncc1C(F)(F)F [Example 214, N2-(1-(1-isopropylazetidin-3-yl)-3-methyl-1H-pyrazol-4-yl)-N4-methyl-5-(trifluoromethyl) pyrimidine-2,4-diamine]
8.4 | CNc1nc(Nc2cn(-c3ccccc3)nc2C)ncc1Br [Example 109, 5-bromo-N4-methyl-N2-(3-methyl-1-phenyl-1H-pyrazol-4-yl)pyrimidine-2,4-diamine]
1.1 | CCNc1nc(Nc2cn(CCOC)nc2C)ncc1C(F)(F)F [Example 294, N4-Ethyl-N2-[1-(2-methoxy-ethyl)-3-methyl-1H-pyrazol-4-yl]-5-trifluoromethyl-pyrimidine-2,4-diamine]
1.2 | CCNc1nc(Nc2cnn([C@H]3CCCN(C)C3)c2C)ncc1C(F)(F)F [Example 311, N4-Ethyl-N2-[5-methyl-1-((S)-1-methyl-piperidin-3-yl)-1H-pyrazol-4-yl]-5-trifluoromethyl-pyrimidine-2,4-diamine]
11 | CNc1nc(Nc2cnn(C)c2C2CCC2)ncc1C(F)(F)F [Example 229, N2-(5-cyclobutyl-1-methyl-1H-pyrazol-4-yl)-N4-methyl-5-(trifluoromethyl) pyrimidine-2,4-diamine]
2.2 | CNc1nc(Nc2cnn(Cc3ccncn3)c2C)ncc1C(F)(F)F [Example 323, N4-Methyl-N2-(5-methyl-1-pyrimidin-4-ylmethyl-1H-pyrazol-4-yl)-5-trifluoromethyl-pyrimidine-2,4-diamine]
10 | CNc1nc(Nc2cnn(S(C)(=O)=O)c2C)ncc1C(F)(F)F [Example 195, N4-methyl-N2-(5-methyl-1-(methylsulfonyl)-1H-pyrazol-4-yl)-5-(trifluoromethyl) pyrimidine-2,4-diamine]
28 | CNc1nc(Nc2cn(-c3ccc(Cl)cc3)nc2C)ncc1C(F)(F)F [Example 129, N2-(1-(4-chlorophenyl)-3-methyl-1H-pyrazol-4-yl)-N4-methyl-5-(trifluoromethyl) pyrimidine-2,4-diamine]
